Source: patent US20260151398A1, “COMPOUNDS FOR REDUCING CHOLESTEROL AND TREATING LIVER AND KIDNEY DISEASE” (McMaster University, priority 2021, published 2026)
Entries after “also recorded” stand apart in the source; their conditions may differ.

Assays:
PCSK9 = PCSK9 expression in hepatocytes (immunoblot, real-time PCR); format: cell-based, human, mouse
Protocol: HuH7 and HepG2 cells were routinely grown in complete Dulbecco's Modified Eagle's Medium (Gibco, Thermofisher Scientific) supplemented with 10% fetal bovine serum (Sigma-Aldrich) and 100 U/ml of penicillin and streptomycin (Sigma-Aldrich). […] All cell treatments were carried out for 24 h unless otherwise stated. Cells were transfected with a cocktail consisting of plasmid DNA (1 μg), X-tremeGENE HP (3 μl; Thermofisher Scientific) and opti-MEM (100 μl; Thermofischer Scientific) per 1 ml complete medium containing plated cells. Human PCSK9 was overexpressed using the bicistronic pIRES-EGFP plasmid; calnexin using the mPA-GFP-N1 plasmid. To block the expression of GRP78 and CD36, siGENOME smartpool siRNA was purchased from GE Dharmacon (M-008198-02 and L-010206-00-0005 respectively) and transfected using lipofectamine RNAiMAX as per manufacturer's protocol.
(§1) Cells were washed in phosphate-buffered saline (PBS), lysed in 4× SDS-PAGE lysis buffer and separated on 7-10% polyacrylamide gels in denaturing conditions. Gels were transferred to nitrocellulose membranes using the BioRad mini trans-blot system, blocked in 5% skim milk in tris-buffered saline (TBS) for 1 h and incubated in primary antibody overnight for 16 h at 4° C. Membranes were then exposed to horse radish peroxidase conjugated secondary antibodies and visualized using EZ-ECL chemiluminescent reagent (Froggabio). Band intensities were quantified using ImageJ software ([…]) against membranes reprobed for housekeeping proteins.
(§2) RNA purification/isolation was performed using RNeasy mini kits (Qiagen) and normalized to 2 μg RNA using a NanoDrop® spectrophotometer. Samples were then reverse transcribed into cDNA using Superscript Vilo cDNA Synthesis kit (Thermofisher Scientific). Real-time PCR was executed with Fast SYBR Green (Thermo Fisher Scientific) using the ΔΔct method on the ViiA7 real-time PCR platform (Thermofisher Scientific).
Cultured immortalized hepatocytes known to express and secrete PCSK9 (Lebeau, P., et al., 2017), including HuH7 and HepG2 cells, as well as primary mouse- and human-hepatocytes (PMH and PHH, respectively), were treated with CF for 24 h and assessed for PCSK9 expression via immunoblots and real-time PCR (FIG. 1 A to D). […] Given that sterol deprivation represents another well-established promoter of SREBP2 activation (Lebeau, P., et al., 2017), cells were also treated with CF in the presence and absence of U18666A (U18) that depletes intracellular sterols. […] Next, HepG2 cells were treated with an increasing dose of CF.

[1] = test system: ER stress markers (GRP78, ATF4, pPERK, IRE1α, sXBP1, ATF6); test: ER stress / UPR readouts in hepatocytes; format: cell-based, human
Protocol: as §1
Following treatment, live cells were incubated in complete DMEM containing 5 μM Thioflavin-T (ThT; Thermofisher Scientific) for 15 minutes. Cells were then fixed in 4% paraformaldehyde and mounted with permafluor. Fluorescent staining was visualized using the EVOS FL colour system at either 20 or 40× magnification.
as §2
Because ER Ca^2+ depletion induces a compensatory unfolded protein response (UPR), it was also postulated that CF may attenuate UPR marker expression by increasing ER Ca^2+ levels. […] Reactive oxygen species production, a process known to occur during conditions of ER stress, was also attenuated by CF (FIG. 9 H). […] While increasing the protein binding ability of chaperones, such as GRP78, CF also attenuates SREBP2-driven gene expression (FIG. 7 L).

GRP78 and SREBP2 = test: Co-immunoprecipitation of GRP78 with SREBP2 in HuH7 cells; format: cell-based, human; details: TG 100 nM, CDN 100 μM, CF 200 μM, 24 h
Protocol: Cells were grown in 10 cm dishes were resuspended in ice cold non-denaturing immunoprecipitation buffer containing 20 mM tris HCL, 137 mM NaCl, 1% NP-40, 2 mM EDTA and protease inhibitor (Roche). Total cell protein was normalized using a protein assay (BioRad) and 1 mg of protein from each sample was incubated with 2 μg of capture antibody targeted against GRP78 (Santa Cruz Biotechnology; SC-1050) and rotated on a platform for 24 h at 4° C. Following incubation, samples were exposed to 100 μl of Protein G magnetic Surebeads® (BioRad) for an additional 2 h on a rotating platform at 4° C. Beads conjugated to the anti-GRP78 antibody were subsequently isolated and the remaining sample was collected and labelled “input” for use as controls. The magnetic beads underwent 4 consecutive washes using the non-denaturing IP buffer and resuspended and boiled in 100 μl of 4× SDS-PAGE sample buffer.
To determine whether increasing ER Ca^2+ levels enhance GRP78 peptide binding capacity, HuH7 cells were treated with either CDN, which increases ER Ca^2+ levels, or TG which causes ER Ca^2+ depletion. Following treatment, the interaction taking place between GRP78 and SREBP2 was examined via immunoprecipitation of the former. By affecting ER Ca^2+ levels however, these agents also directly impact the expression and abundance of GRP78 compared to untreated cells. Therefore, assessment of the relative binding capacity GRP78 for SREBP2 between treatments required normalization of immunoprecipitations to equivalent GRP78 protein levels (FIG. 7 A).

Row | Structure (SMILES) | SREBP2 and PCSK9 mRNA transcript level (PCSK9; HuH7, ryanodine 10 μM, CDN 100 μM, 2 APB 50 μM, presence or absence of TG, 24 h) | TG-induced GRP78 expression ([1]; HuH7, with TG 100 nM) | interaction of GRP78 with pre-mature SREBP2 (GRP78 and SREBP2) | PCSK9 and SREBP2 expression on ER Ca2+ depletion (PCSK9; HuH7, TG 100 nM, CPA 10 μM) | GRP78 expression ([1]; HuH7, TG 100 nM, CPA 10 μM) | TG-induced PCSK9 expression (PCSK9; CF 200 μM with thapsigargin 100 nM, 24 h) | PCSK9 mRNA and secreted protein in presence of ActD (PCSK9; HepG2 pre-treated with actinomycin D) | PCSK9 and SREBP2 mRNA and secreted PCSK9 in presence of siGRP78 (PCSK9; HepG2 transfected with siGRP78) | PCSK9 protein and mRNA transcript levels (PCSK9; HuH7, HepG2, PMH, PHH, 24 h, listed as CF) | U18-induced PCSK9 expression (PCSK9; HuH7, CF 200 μM with U18 10 μM, 24 h) | thioflavin-T-stained misfolded protein aggregates and FLAG-sXBP1 expression ([1]; HuH7) | reactive oxygen species production ([1]; HuH7, TG 100 nM) | expression of pPERK, IRE1α, sXBP1, ATF4 and ATF6 ([1]; HuH7, immunoblotting and real-time PCR, listed as CF) | mRNA of ER stress markers GRP78 and ATF4 ([1]; PHH, CF 200 μM)
1 | Cc1ccc2cccc(NC(=O)c3ccc(OC(C)C)cc3)c2n1 [CDN] | blocked SREBP2 and PCSK9 at the mRNA transcript level | blocked TG-induced expression | enhanced the ability of GRP78 to interact with and sequester pre-mature SREBP2 | – | – | – | – | – | – | – | – | – | – | –
2 | C/C=C(/C)C(=O)O[C@H]1C(C)=C2[C@H]([C@@H]1OC(=O)CCCCCCC)[C@@](C)(OC(C)=O)C[C@H](OC(=O)CCC)[C@@]1(O)[C@H]2OC(=O)[C@@]1(C)O [TG, thapsigargin] | – | – | lost its intrinsic ability to interact with pre-mature SREBP2 | increased PCSK9 and SREBP2 expression | increased the expression of GRP78 | – | – | – | – | – | – | – | – | –
3 | Cn1c(=O)c2c(ncn2C)n(C)c1=O [caffeine, 1,3,7-Trimethylxanthine] | – | – | increases the SREBP2-binding capacity of GRP78 | – | – | attenuated PCSK9 expression | failure of CF to block PCSK9 mRNA | failed to attenuate PCSK9 and SREBP2 mRNA expression or secreted PCSK9 levels | reduced protein and mRNA transcript levels of PCSK9; also recorded: blocks PCSK9 expression | attenuated U18-induced PCSK9 expression | blocked the accumulation of thioflavin-T-stained misfolded protein aggregates | attenuated | reduction in the expression of pPERK, IRE1α, sXBP1, ATF4 and ATF6; also recorded: protects against ER stress | reduction in mRNA transcript levels of ER stress markers
